Values joined by “and” are separate entries in the source; they are usually repeats but may differ in a detail not shown here. Identical values can stand only once. Counter-ions that a name gives are not always drawn.
Key:
human RORγt LBD = target: T1, human RORγt LBD (Homo sapiens, UniProt P51449); assay: RORγt reporter assay (GAL4-RORγt LBD luciferase in HEK293T cells); format: cell-based; details: for IC50 / RORγt reporter Assay, % inhibition @ 6 μM: HEK293T cells; for IC50: 24 hours compound treatment; for inhibition at 6 µM: HEK-293T, read-out: RORγt reporter Assay, % inhibition @ 6 μM, HEK293T cells, 6 μM compound; for RORγt reporter Assay, % inhibition @ 6 μM: 6 μM compound
T1 construct: expressed in transfected cells
T1 sequence (P51449 258-518): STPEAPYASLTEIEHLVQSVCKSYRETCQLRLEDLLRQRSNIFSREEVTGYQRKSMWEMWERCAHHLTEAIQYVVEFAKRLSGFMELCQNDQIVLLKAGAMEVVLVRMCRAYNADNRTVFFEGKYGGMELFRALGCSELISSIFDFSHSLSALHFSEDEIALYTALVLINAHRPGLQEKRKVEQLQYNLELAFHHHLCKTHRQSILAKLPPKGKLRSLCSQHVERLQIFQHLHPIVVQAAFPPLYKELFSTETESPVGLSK
Outline: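 HEK293T cells transiently co-transfected with pBIND (GAL4 DBD fused to wild-type human RORγt LBD, plus SV40-driven renilla luciferase) and pGL4.31 GAL4-responsive firefly luciferase reporter. Plated in phenol-red-free DMEM with 5% lipid-reduced FCS and treated with compound for 24 h. Firefly/renilla luminescence ratio plotted against compound concentration.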

[1] = tested on: IL-17 production by CD4 T cells; assay: Human Th17 assay (IL-17 production by CD4 T cells under Th17 differentiation conditions); format: cell-based; details: IL-17 in supernatant after 3 days
Experimental: The human Th17 assay tests the effect of RORγt modulatory compounds on IL-17 production by CD4 T cells under conditions which favor Th17 differentiation. Total CD4^+ T cells were isolated from the peripheral blood mononuclear cells (PBMC) of healthy donors using a CD4^+ T cell isolation kit II, following the manufacturer's instructions (Miltenyi Biotec). […] 50 μL of compound at titrated concentrations in DMSO were added into each well at final DMSO concentration at 0.2%. Cells were incubated for 1 hour, then 50 μL of Th17 cell differentiation medium was added to each well. The final concentrations of antibodies and cytokines (R&D Systems) in differentiation medium were: 3×10^6/mL anti-CD3/CD28 beads (prepared using human T cell activation/expansion kit, Miltenyi Biotec), 10 μg/mL anti-IL4, 10 μg/mL anti-IFNγ, 10 ng/mL IL113, 10 ng/mL IL23, 50 ng/mL IL6, 3 ng/mL TGFβ and 20 U/mL IL2. Cells were cultured at 37° C. and 5% CO2 for 3 days. Supernatants were collected and the accumulated IL-17 in culture was measured by using MULTI-SPOT® Cytokine Plate following manufacture's instruction (Meso Scale Discovery). The plate was read using Sector Imager 6000, and IL-17 concentration was extrapolated from the standard curve. The IC50s were determined by GraphPad.

[2] = target: T2, human RORγt ligand binding domain (RORγt LBD) (Homo sapiens, UniProt P51449); assay: RORγt ThermoFluor assay (thermal shift, ligand binding affinity); details: estimated from concentration response of thermal shift
T2 construct: His-tag (N); TurboTEV protease cleavage site (ENLYFQG) (N); made in house; host or cells: E. coli (pHIS1, modified pET vector)
T2 sequence (P51449 with tags, fused parts or gaps): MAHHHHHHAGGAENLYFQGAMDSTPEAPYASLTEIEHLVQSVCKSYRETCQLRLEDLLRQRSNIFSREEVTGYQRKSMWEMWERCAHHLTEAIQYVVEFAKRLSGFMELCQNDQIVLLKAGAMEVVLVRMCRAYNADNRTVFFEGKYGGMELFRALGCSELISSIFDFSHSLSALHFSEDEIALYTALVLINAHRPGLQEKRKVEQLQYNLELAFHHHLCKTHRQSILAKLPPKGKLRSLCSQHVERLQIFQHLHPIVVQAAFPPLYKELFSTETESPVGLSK
Outline: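 Thermal shift of 0.065 mg/mL RORγt with 60 μM 1,8-ANS in 100 mM Hepes pH 7.0, 10 mM NaCl, 2.5 mM GSH, 0.002% Tween-20. Compounds in 1:2 series from 10 mM DMSO stock. Dye fluorescence (500 nm emission) tracked versus temperature; ΔTm used to derive KD.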

| SMILES | IC50 (human RORγt LBD) | inhibition at 6 µM (human RORγt LBD) | IC50 ([1]; Homo sapiens, CD4+ T, 72 h) | IC50 [1] | Kd [2] | RORγt reporter Assay, % inhibition @ 6 μM (human RORγt LBD) |
| --- | --- | --- | --- | --- | --- | --- |
| Cn1cncc1C(O)(c1ccc(Cl)cc1)c1ccc2nc(Cl)c(-c3ccccc3Cl)c(Cl)c2c1 (racemic) [Example 153a, (4-Chlorophenyl)(2,4-dichloro-3-(2-chlorophenyl)quinolin-6-yl)(1-methyl-1H-imidazol-5-yl)methanol] | 230 nM and ~400 nM | 96% | 480 nM | ~700 nM | 71 nM |  |
| CC(=O)N1CCC(C(O)(c2ccccc2)c2ccc3nc(C(F)(F)F)c(-c4ccccc4)c(C(F)(F)F)c3c2)CC1 (racemic) [Example 169a, 1-(4-(Hydroxy(phenyl)(3-phenyl-2,4-bis(trifluoromethyl)quinolin-6-yl)methyl)piperidin-1-yl)ethanone] | 72 nM | 96% | 66 nM |  | 8.1 nM |  |
| Cn1cncc1C(O)(c1ccc(Cl)cc1)c1ccc2nc(Cl)c(-c3ccccc3Cl)c(Cl)c2c1 (single isomer, unassigned) [Example 153b, (4-Chlorophenyl)(2,4-dichloro-3-(2-chlorophenyl)quinolin-6-yl)(1-methyl-1H-imidazol-5-yl)methanol] | 690 nM |  |  | 1600 nM | 270 nM | 93% |
| Cn1cncc1C(O)(c1ccc(Cl)cc1)c1ccc2nc(Cl)c(-c3ccccc3Cl)c(Cl)c2c1 (single isomer, unassigned) [Example 153c, (4-Chlorophenyl)(2,4-dichloro-3-(2-chlorophenyl)quinolin-6-yl)(1-methyl-1H-imidazol-5-yl)methanol] | 140 nM |  |  | 250 nM | 19 nM | 96% |
| Cn1cncc1C(O)(c1ccc(C(F)(F)F)nc1)c1ccc2nc(C(F)(F)F)c(-c3ccccc3)c(C#N)c2c1 (single isomer, unassigned) [Example 173c, 6-(Hydroxy(1-methyl-1H-imidazol-5-yl)(6-(trifluoromethyl)pyridin-3-yl)methyl)-3-phenyl-2-(trifluoromethyl)quinoline-4-carbonitrile] |  |  | 130 nM |  |  | 95% |
| OC(c1ccccc1)(c1cccnc1)c1ccc2nc(Cl)c(-c3ccccc3)c(Cl)c2c1 (stereo not drawn) [Example 2, (2,4-Dichloro-3-phenylquinolin-6-yl)(phenyl)(pyridin-3-yl)methanol] |  |  | 620 nM | ~700 nM |  |  |
| Cn1cncc1C(O)(c1ccncc1)c1ccc2nc(Cl)c(-c3ccccc3)c(Cl)c2c1 (stereo not drawn) [Example 16, (2,4-Dichloro-3-phenylquinolin-6-yl)(1-methyl-1H-imidazol-5-yl)(pyridin-4-yl)methanol] |  |  | 130 nM |  |  |  |
| CN(C)c1nc2ccc(C(O)(c3ccncc3)c3cncn3C)cc2c(Cl)c1-c1ccccc1 (stereo not drawn) [Example 48a, (4-Chloro-2-(dimethylamino)-3-phenylquinolin-6-yl)(1-methyl-1H-imidazol-5-yl)pyridin-4-ylmethanol•TFA] |  |  | 19 nM |  |  |  |
| Cn1cncc1C(O)(c1cccnc1)c1ccc2nc(Cl)c(-c3ccccc3)c(Cl)c2c1 (stereo not drawn) [Example 49, (2,4-Dichloro-3-phenylquinolin-6-yl)(1-methyl-1H-imidazol-5-yl)(pyridin-3-yl)methanol] |  |  | 410 nM |  |  |  |
| Cc1cc(C(O)(c2ccc3nc(Cl)c(-c4ccccc4)c(Cl)c3c2)c2cncn2C)ccn1 (stereo not drawn) [Example 67, (2,4-Dichloro-3-phenylquinolin-6-yl)(1-methyl-1H-imidazol-5-yl)(2-methylpyridin-4-yl)methanol•TFA] |  |  | 27 nM |  |  |  |
| Cn1cncc1C(O)(c1ccnc(F)c1)c1ccc2nc(Cl)c(-c3ccccc3)c(Cl)c2c1 (stereo not drawn) [Example 86, (2,4-Dichloro-3-phenylquinolin-6-yl)(2-fluoropyridin-4-yl)(1-methyl-1H-imidazol-5-yl)methanol•TFA] |  |  | 37 nM |  |  |  |
| Cc1nc(C)c(C(O)(c2ccc3nc(Cl)c(-c4ccccc4)c(Cl)c3c2)c2cncn2C)s1 (stereo not drawn) [Example 143, (2,4-Dichloro-3-phenylquinolin-6-yl)(2,4-dimethylthiazol-5-yl)(1-methyl-1H-imidazol-5-yl)methanol] |  |  | 20 nM |  |  |  |

— patent US9309222B2, “Phenyl linked quinolinyl modulators of RORγt” (Janssen Pharmaceutica NV, priority 2012, dated 2016)
